Assay results from ChEMBL document CHEMBL3272101, “Antiviral activity of some beta-diketones. 4. Benzyl diketones. In vitro activity against both RNA and DNA viruses” (1978).
≈ marks a conversion by molar mass, not a printed value. Calls of active or inactive are those of the source. No cut-off for these calls is given here.

Assays:
Human alphaherpesvirus 2 = experiment: Antiviral activity against Herpesvirus 2; type: functional
Influenza A virus [1] = experiment: Antiviral activity against Influenza A2 Japan 170 virus infected in ferret trachea assessed as reduction in virus yield at 50 ug/ml; type: functional; details: A2 Japan 170, Trachea, in Mustela putorius
Human alphaherpesvirus 1 [2] = experiment: (§1) Antiviral activity against Herper simplex virus 1 Sheely infected in Blue Spruce mouse assessed as host survival time administered as 5% suspension in 1% gum tragacanth intravaginally, bid using cotton tampons treatment started 4 hrs post-infection for every 24 hrs and second treatment followed 6 hrs later for 7 days (reference value: >10.7 days); type: functional
Equine herpesvirus sp. [3] = experiment: Antiviral activity Equine rhinovirus; type: functional
Equine herpesvirus sp. [4] = experiment: Antiviral activity Equine rhinovirus infected in monkey trachea assessed as log reduction in virus yield at 50 ug/ml; type: functional
[5] = test system: Respiratory syncytial virus; experiment: Antiviral activity against Respiratory syncytial virus; type: functional; details: human respiratory syncytial virus
[6] = Antiviral activity against Human rhinovirus 17; type: functional, Human rhinovirus B17; details: Rhinovirus B
Equine herpesvirus sp. [7] = experiment: Antiviral activity Equine rhinovirus infected in monkey trachea assessed as log reduction in virus yield at 25 ug/ml; type: functional
Human alphaherpesvirus 1 [8] = experiment: as §1, with “10%” for “5%”; type: functional
Influenza A virus [9] = experiment: Antiviral activity against Influenza A2 Japan 170 virus infected in ferret trachea assessed as reduction in virus yield at 25 ug/ml; type: functional; details: A2 Japan 170, Trachea, in Mustela putorius
Human alphaherpesvirus 1 [10] = experiment: as §1, with “rate” for “time”, “10%” for “5%”, “days measured 14 days post-infection” for “days”, “40%)” for “>10.7 days)”; type: functional
Human alphaherpesvirus 1 [11] = experiment: as §1, with “rate” for “time”, “days measured 14 days post-infection” for “days”, “40%)” for “>10.7 days)”; type: functional
Human respirovirus 3 = experiment: Antiviral activity against Parainfluenza virus 3; type: functional
rhinovirus A2 = experiment: Antiviral activity against Human rhinovirus 2; type: functional; details: Rhinovirus A
Human alphaherpesvirus 1 [12] = experiment: Antiviral activity against Herpes simplex virus 1; type: functional

| SMILES | MIC (Human alphaherpesvirus 2) | further results |
| --- | --- | --- |
| CCC(=O)C(Cc1ccc(Oc2ccc(OC)cc2)cc1)C(=O)CC | 3 µg/mL (≈ 8.81 µM) |  |
| CCC(=O)C(Cc1ccc(OC)cc1Cl)C(=O)CC | 50 µg/mL (≈ 177 µM) |  |
| CCC(=O)C(Cc1ccc(Cc2ccc(OC)cc2)cc1)C(=O)CC | 6 µg/mL (≈ 17.7 µM) |  |
| CCC(=O)C(Cc1ccc(O)cc1)C(=O)CC | inactive |  |
| CCC(=O)C(Cc1ccc(/C=C/c2ccc(Cl)cc2)cc1)C(=O)CC | inactive |  |
| CCC(=O)C(Cc1ccc(Cc2ccc(O)cc2)cc1)C(=O)CC | 3 µg/mL (≈ 9.25 µM) |  |
| CCC(=O)C(Cc1ccc(/C=C/c2ccc(O)cc2)cc1)C(=O)CC | 1.5 µg/mL (≈ 4.46 µM) |  |
| CCC(=O)C(Cc1ccc(C)cc1)C(=O)CC | inactive |  |
| CCC(=O)C(Cc1ccc(OC)cc1)C(=O)CC | inactive |  |
| CCC(=O)C(Cc1ccc(Cc2ccccc2)cc1)C(=O)CC | 6 µg/mL (≈ 19.5 µM) |  |
| CCC(=O)C(Cc1ccc(/C=C/c2ccc(OC)cc2Cl)cc1Cl)C(=O)CC | inactive |  |
| CCC(=O)C(CC1CCC(Cc2ccc(OC)cc2)CC1)C(=O)CC (configuration not stated) | 6 µg/mL (≈ 17.4 µM) |  |
| CCC(=O)C(Cc1ccc(/C=C/c2ccc(OC)cc2Cl)cc1)C(=O)CC | 1.5 µg/mL (≈ 3.9 µM) |  |
| CCC(=O)C(Cc1ccc(/C=C/c2ccccc2)cc1)C(=O)CC | inactive |  |
| CCC(=O)C(Cc1ccc(CCc2ccc(OC)cc2)cc1)C(=O)CC | 3 µg/mL (≈ 8.51 µM) |  |
| CCC(=O)C(Cc1ccc(/C=C/c2ccc(OC)cc2)cc1)C(=O)CC | 1.25 µg/mL (≈ 3.57 µM) | inhibition at 50 µg/mL (Influenza A virus [1]): 0%; Time (Human alphaherpesvirus 1 [2]): >11.3 days; MIC (Equine herpesvirus sp. [3]): 0.06 µg/mL (≈ 0.171 µM); LCK (Equine herpesvirus sp. [4]): 2; MIC [5]: 1.5 µg/mL (≈ 4.28 µM); MIC [6]: 0.3 µg/mL (≈ 0.856 µM); LCK (Equine herpesvirus sp. [7]): 1.7; Time (Human alphaherpesvirus 1 [8]): >11.4 days; inhibition at 25 µg/mL (Influenza A virus [9]): 0%; Survival (Human alphaherpesvirus 1 [10]): 60%; Survival (Human alphaherpesvirus 1 [11]): 50%; MIC (Human respirovirus 3): 3 µg/mL (≈ 8.56 µM); MIC (rhinovirus A2): 0.2 µg/mL (≈ 0.571 µM); MIC (Human alphaherpesvirus 1 [12]): 0.7 µg/mL (≈ 2 µM) |
| CCC(=O)C(C[C@H]1CC[C@@H](COc2ccc(OC)cc2Cl)CC1)C(=O)CC | 6 µg/mL (≈ 15.2 µM) |  |
| CCC(=O)C(Cc1ccc(/C=C/c2ccc(O)cc2Cl)cc1)C(=O)CC | 1.5 µg/mL (≈ 4.04 µM) |  |
